Laboratory results reported in patent publication US20260138948A1, “N-SUBSTITUTED INDOLES AS 5-HYDROXYTRYPTAMINE (5-HT) SEROTONIN RECEPTOR AGONISTS AND ANTAGONISTS” (Terran Biosciences Inc., priority 2021, published 2026).

Columns and labels:
[1] = Metabolic stability in human liver microsomes; format: in vitro ADME; conditions: for half-life at 1 μM / microsomal CLint at 1 μM / CLint scaled at 1 μM: liver microsomes (pooled); for half-life at 1 μM: human liver microsomes 0.5 mg/mL, test compound 1.0 μM, 37° C., NADPH; for microsomal CLint at 1 μM: intrinsic clearance = 0.693/T1/2/mg microsome protein per mL, read-out: CLint(mic); for CLint scaled at 1 μM: human, scaled from CLint(mic) with 45 mg microsomal protein/g liver and 20 g liver/kg
Method: The test compound at 1.0 μM in singlet, or positive controls including Testosterone (CYP3A4 substrate), Propafenone (CYP2D6 substrate) or Diclofenac (CYP2C9 substrate) was incubated with the liver microsomes (Corning, Xenotech, or other credible vendor, pooled from multiple donors) at 0.5 mg/mL, respectively. The mixture was warmed up at 37° C. for 10 minutes and the reactions were initiated by the addition of a NADPH regenerating system (˜1.0 mM). The test compound incubated with the liver microsomes at 37° C. without the NADPH regenerating system served as the negative control reaction.
The reaction samples were removed at multiple time points (such as 0, 5, 15, 30, 45 and 60 minutes) and the sample without NADPH (NCF) was removed at 60 minutes. All the samples were immediately mixed with cold acetonitrile containing internal standard (IS) to stop the reaction.
Samples were analyzed by LC/MS/MS and the disappearance of test compound were assessed base on peak area ratios of analyte/IS (no standard curve). The microsomal intrinsic clearance and T1/2 values were calculated using the following equation: […]
The microsomal intrinsic clearance and T1/2 values were calculated using the following equation: […]
In these experiments the comparator compound was a suitable reference standard. In one embodiment the comparator compound was (R)-1-(5-methoxy-1H-indol-1-yl)-N,N-dimethylpropan-2-amine.

5-HT2C receptor = target: T1, 5-HT2C receptor (Homo sapiens, UniProt P28335); test: Calcium mobilization assay, antagonist format, 5-HT2C; format: cell-based; conditions: @10 µM; agonist challenge at EC80
T1 construct: host or cells: unnamed cell lines
T1 sequence (P28335 33-458): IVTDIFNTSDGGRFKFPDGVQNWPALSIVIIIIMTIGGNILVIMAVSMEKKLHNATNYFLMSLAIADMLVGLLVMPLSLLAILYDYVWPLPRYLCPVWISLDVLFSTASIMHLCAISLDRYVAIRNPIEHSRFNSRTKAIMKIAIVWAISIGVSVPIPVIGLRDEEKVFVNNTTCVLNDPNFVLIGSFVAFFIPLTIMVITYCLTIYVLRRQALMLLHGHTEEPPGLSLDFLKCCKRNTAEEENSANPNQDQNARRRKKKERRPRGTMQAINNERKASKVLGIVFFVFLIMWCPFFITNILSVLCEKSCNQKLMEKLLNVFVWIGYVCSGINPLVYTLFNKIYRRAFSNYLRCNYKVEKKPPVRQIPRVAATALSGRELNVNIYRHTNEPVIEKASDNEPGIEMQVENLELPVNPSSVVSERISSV
Method: (§1) Protocol—in vitro testing at select 5-hydroxytryptamine (5-HT; serotonin) receptors was conducted.
(§2) • 1. Cell lines were expanded from freezer stocks according to standard procedures. • 2. Cells were seeded in a total volume of 20 μL into black-walled, clear-bottom, Poly-D-lysine coated 384-well microplates and incubated at 37° C. for the appropriate time prior to testing.
(§3) • 1. Assays were performed in 1× Dye Loading Buffer consisting of 1× Dye, 1× Additive A and • 2.5 mM Probenecid in HBSS/20 mM Hepes. Probenicid was prepared fresh. • 2. Cells were loaded with dye prior to testing. Media was aspirated from cells and replaced with 20 μL Dye Loading Buffer. • 3. Cells were incubated for 30-60 minutes at 37° C.
(§4) • 1. For antagonist determination, cells were pre-incubated with sample followed by agonist challenge at the EC80 concentration. • 2. Intermediate dilution of sample stocks was performed to generate 3× sample in assay buffer. • 3. After dye loading, cells were removed from the incubator and 10 μL 3× sample was added. Cells were incubated for 30 minutes at room temperature in the dark to equilibrate plate temperature. Vehicle concentration was 1%. • 4. Compound antagonist activity was measured on a FLIPR Tetra (MDS). Calcium mobilization was monitored for 2 minutes and 10 μL EC80 agonist in HBSS/20 mM Hepes was added to the cells 5 seconds into the assay.
(§5) • 1. Compound activity was analyzed using CBIS data analysis suite (ChemInnovation, CA). • 2. For agonist mode assays, percentage activity is calculated using the following formula: % Activity=100%×(mean RFU of test sample−mean RFU of vehicle control)/(mean MAX RFU control ligand −mean RFU of vehicle control). • 3. For positive allosteric mode assays, percentage modulation was calculated using the following formula: % Modulation=100%×((mean RFU of test sample−mean RFU of EC20 control)/(mean RFU of MAX control ligand −mean RFU of EC20 control)). • 4. For antagonist and negative allosteric modulation mode assays, percentage inhibition is calculated using the following formula: % Inhibition=100%×(1−(mean RFU of test sample−mean RFU of vehicle control)/(mean RFU of EC80 control−mean RFU of vehicle control)).
[…] For research comparative purposes, a literature compound—(R)-1-(5-methoxy-1H-indol-1-yl)-N,N-dimethylpropan-2-amine (AAZ-A-154) (Cell 2021, 184, 2779-2792.e18)—was included in the screening assays. Additionally, 5-hydroxytryptamine/serotonin (5-HT) was included in the screening assay as a positive control agonist, and SB242084 was used in the screening assay as a literature 5-HT2C antagonist positive control. […] Compounds 2, 3 and 93 each achieved greater than 75% antagonism of the 5-HT2C receptor, with compounds 3 and 93 achieving approximately 98% and 97% antagonism, respectively.

5-HT2A receptor [2] = target: T2, 5-HT2A receptor (Homo sapiens, UniProt P28223); test: Calcium mobilization assay, agonist format, 5-HT2A; format: cell-based; conditions: % activity relative to control ligand, read-out: 5-HT2A agonist efficacy @10 µM
T2 construct: host or cells: unnamed cell lines
Method: as §1, §2, §3
(§6) • 1. For agonist determination, cells were incubated with sample to induce response. • 2. After dye loading, cells were removed from the incubator and 10 μL HBSS/20 mM Hepes was added. 3× vehicle was included in the buffer when performing agonist dose curves to define the EC80 for subsequent antagonist assays. Cells were incubated for 30 minutes at room temperature in the dark to equilibrate plate temperature. • 3. Intermediate dilution of sample stocks was performed to generate 4× sample in assay buffer. • 4. Compound agonist activity was measured on a FLIPR Tetra (MDS). Calcium mobilization was monitored for 2 minutes and 10 μL 4× sample in HBSS/20 mM Hepes was added to the cells 5 seconds into the assay.
as §5

5-HT2A receptor [3] = target: T2, 5-HT2A receptor; test: Calcium mobilization assay, antagonist format, 5-HT2A; format: cell-based; conditions: @100 nM; agonist challenge at EC80
Method: as §1, §2, §3, §4, §5
Compounds were evaluated as 5-HT2A antagonists at 100 nM (one hundred nanomolar), or may be evaluated at a higher concentration. For research comparative purposes, a literature compound—(R)-1-(5-methoxy-1H-indol-1-yl)-N,N-dimethylpropan-2-amine (AAZ-A-154) (Cell 2021, 184, 2779-2792.e18)—was included in the screening assays. Additionally, 5-hydroxytryptamine/serotonin (5-HT) was included in the screening assay as a positive control agonist, and Altanserin HCl was included as a 5-HT2A antagonist positive control.

5-HT2B receptor = target: T3, 5-HT2B receptor (Homo sapiens, UniProt P41595); test: Calcium mobilization assay, agonist format, 5-HT2B; format: cell-based; conditions: % activity relative to control ligand, read-out: 5-HT2B agonist efficacy @5 µM
T3 construct: host or cells: unnamed cell lines
Method: as §1, §2, §3, §6, §5

C57BL/6J mice = test: Head-twitch response (HTR) in mice; format: in vivo, mouse; conditions: 10 mg/kg ip, male C57BL/6J mice, 40 min post-dose; FIGS. 2 and 3
Method: Head-Twitch Response (HTR). The head-twitch response assay is performed as is known to those of skill in the art using both male and female C57BL/6J mice (3 per treatment). The mice are obtained and are approximately 8 weeks old at the time of the experiments. Compounds are administered via intraperitoneal injection (5 mL/kg) using 0.9% saline as the vehicle. As a positive control, 5-MeO-DMT fumarate (2:1 amine/acid) was utilized. Behavior was videotaped, later scored by two blinded observers, and the results were averaged (Pearson correlation coefficient=0.93).
24 Male C57BL/6J mice (approximately 25 g) were group housed in a stock room. Animals were maintained under a 12 h light/dark cycle, at 23° C. with humidity controlled according to Home Office regulations.
Compounds 1, 2, 4, 151, 93, AAZ literature compound and 5-MeO-DMT (all compounds supplied as free bases) were each formulated in DMSO:saline [10:90] at a concentration of 2 mg/mL to give a dose of 10 mg/kg when administered ip in a 5 mL/kg dosing volume. […]
At T=0 h, groups of 3 mice were dosed intraperitoneally with either Vehicle, Compound 1, Compound 2, Compound 4, Compound 151, Compound 93, AAZ literature compound, or 5-MeO-DMT each at 10 mg/kg. Following dosing, mice were replaced into the observation cages and head twitch behavior was monitored for 40 min after agonist dosing.

5HT2A sensor = conditions: general statement on known hallucinogens and non-hallucinogenic congeners; cited from earlier work

T2 sequence (P28223 whole entry): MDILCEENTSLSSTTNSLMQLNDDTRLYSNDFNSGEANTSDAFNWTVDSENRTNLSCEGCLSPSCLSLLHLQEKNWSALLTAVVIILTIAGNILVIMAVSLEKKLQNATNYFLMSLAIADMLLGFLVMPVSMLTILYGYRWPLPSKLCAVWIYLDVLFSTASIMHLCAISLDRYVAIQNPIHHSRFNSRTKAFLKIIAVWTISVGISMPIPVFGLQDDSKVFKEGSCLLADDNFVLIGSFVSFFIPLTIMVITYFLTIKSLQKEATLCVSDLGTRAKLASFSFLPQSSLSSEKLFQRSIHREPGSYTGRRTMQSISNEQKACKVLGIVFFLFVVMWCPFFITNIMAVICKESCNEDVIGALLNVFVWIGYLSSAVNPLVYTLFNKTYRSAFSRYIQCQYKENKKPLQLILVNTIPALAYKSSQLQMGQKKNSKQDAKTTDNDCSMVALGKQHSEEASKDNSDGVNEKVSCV
T3 sequence (P41595 whole entry): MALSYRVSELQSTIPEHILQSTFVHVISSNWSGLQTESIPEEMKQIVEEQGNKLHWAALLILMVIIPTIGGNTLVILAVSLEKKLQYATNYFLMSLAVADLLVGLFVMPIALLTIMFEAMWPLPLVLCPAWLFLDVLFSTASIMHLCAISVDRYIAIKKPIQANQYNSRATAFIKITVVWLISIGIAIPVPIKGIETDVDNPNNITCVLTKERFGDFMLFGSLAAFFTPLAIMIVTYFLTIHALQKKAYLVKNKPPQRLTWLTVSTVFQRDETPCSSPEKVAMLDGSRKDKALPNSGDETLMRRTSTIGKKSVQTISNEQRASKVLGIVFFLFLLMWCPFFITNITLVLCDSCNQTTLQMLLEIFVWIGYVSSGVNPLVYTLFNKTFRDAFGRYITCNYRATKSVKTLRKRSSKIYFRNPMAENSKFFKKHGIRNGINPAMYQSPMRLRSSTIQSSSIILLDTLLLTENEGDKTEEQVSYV

Row | SMILES | half-life at 1 μM [1] | microsomal CLint at 1 μM ([1]; human liver microsomes) | CLint scaled at 1 μM [1] | inhibition at 10 µM (5-HT2C receptor) | activation at 10 µM (5-HT2A receptor [2]) | inhibition at 0.1 µM (5-HT2A receptor [3]) | activation at 5 µM (5-HT2B receptor) | difference in half-life and intrinsic clearance compared with reference compound (R)-1-(5-methoxy-1H-indol-1-yl)-N,N-dimethylpropan-2-amine ([1]; human liver microsomes, comment on Table 2) | head-twitch response compared to placebo (C57BL/6J mice) | activation of the 5HT2A sensor assay in agonist mode (5HT2A sensor)
1 | COc1ccc2c(ccn2C[C@@H](C)N(C)C)c1 [AAZ-A-154, (R)-1-(5-methoxy-1H-indol-1-yl)-N,N-dimethylpropan-2-amine, reference compound] | 1.42 h | 16.4 µL/min/mg | 14.8 mL/min/kg | 35% | 1% | 3.2% | -2.9% | – | – | –
2 | C[C@H](Cn1ccc2cc(S(=O)(=O)C3CC3)ccc21)N(C)C [Compound 4, (2R)-1-(5-cyclopropylsulfonylindol-1-yl)-N,N-dimethyl-propan-2-amine] | – | – | – | 6.2% | -1.5% | -9.1% | -0.6% | – | – | –
3 | [2H]C([2H])([2H])[C@@]([2H])(N(C)C)C([2H])([2H])n1ccc2cc(OC)ccc21 [Compound 5, (2R)-1,1,1,2,3,3-hexadeuterio-3-(5-methoxyindol-1-yl)-N,N-dimethyl-propan-2-amine] | 1.59 h | 15 µL/min/mg | 13.5 mL/min/kg | 38.1% | 2% | -2.7% | 3% | significant and beneficial differences in half-life and intrinsic clearance | – | –
4 | COc1ccc2[nH]cc(CCN(C)C)c2c1 [Compound 5-MeO-DMT] | – | – | – | – | – | – | – | – | produced significant increases in head-twitch | activate the 5HT2A sensor assay in agonist mode
